Experimental data: patent US20150148393A1, “COSMETIC AND/OR PHARMACEUTICAL COMPOSITION FOR THE TREATMENT OF SKIN INFLAMMATION AND RELATED SYNDROMES” (GENERAL TOPICS S.R.L., priority 2012, published 2015)

System: TNF alpha release from human keratinocytes
Test: Inhibition of SLS-induced TNF alpha release from human keratinocytes
Format: cell-based
Conditions: release induced by sodium lauryl sulphate (SLS), after a 24 hour-period
Source text: A comparison was made between the inhibition of TNF alpha release from human keratinocytes as induced by contact with sodium lauryl sulphate (SLS) and obtained with the use of methyl sulfonyl methane (MSM), and that obtained with the use of hydrocortisone, a compound known to be active in inhibiting the release of TNF alpha. […] Therefore, the studies performed pointed out that MSM can decrease both the release of TNF alpha (this cytokine is expressed by keratinocytes in an inflammatory process of the skin) and the overall intensity of erythema even when TNF alpha is over-expressed by ultraviolet radiations. […] Moreover, it should be noted that TNF alpha can activate TRPV receptors and, therefore, a decrease in the production thereof can prevent it from exerting an agonist effect on the receptors themselves.

Compound | percentage decrease of TNF alpha release [%]
CS(C)(=O)=O [MSM, methyl sulfonyl methane] | 12.33
C[C@]12CCC(=O)C=C1CC[C@@H]1[C@@H]2[C@@H](O)C[C@@]2(C)[C@H]1CC[C@]2(O)C(=O)CO [hydrocortisone] | 5.25
